This passage reports DC50, Dmax and IC50 results from patent US12139492B2 (Endotarget Inc., priority 2021, dated 2024).

The structures appear in SMILES notation.

One assay deals with BTK (Homo sapiens, UniProt Q06187). In words: Degradation of BTK protein in Namalwa cells (Western blot; DC50, Dmax). The following applies: for DC50: read-out: DC50 (BTK degradation), concentration giving 50% reduction of BTK expression level, cell line not given; for Dmax: read-out: Dmax (BTK degradation).
The subject of another assay is JeKo-1 cells. In words: Antiproliferative effect, MTS cell viability assay, JeKo-1 cells. It counts as cell-based. Conditions: Homo sapiens; JeKo-1 mantle cell lymphoma cells; read-out: IC50 (anti-proliferation) JeKO-1 cells. A digest of the protocol:
(§1)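 Tested at six concentrations (0 to 10 μM in tenfold steps), 72 h; viability by MTS, A490.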
In general terms: Tetrazolium assays rely on reduction of a dye to a coloured formazan, in cell work by metabolically active cells.

A further assay has as its system Mino cells. In words: Antiproliferative effect, MTS cell viability assay, Mino cells. Conditions: Homo sapiens, MINO, Mino mantle cell lymphoma cells; read-out: IC50 (anti-proliferation) Mino cells. The class given is cell-based. The procedure, abridged:
as §1

Chain of BTK (Q06187 whole entry): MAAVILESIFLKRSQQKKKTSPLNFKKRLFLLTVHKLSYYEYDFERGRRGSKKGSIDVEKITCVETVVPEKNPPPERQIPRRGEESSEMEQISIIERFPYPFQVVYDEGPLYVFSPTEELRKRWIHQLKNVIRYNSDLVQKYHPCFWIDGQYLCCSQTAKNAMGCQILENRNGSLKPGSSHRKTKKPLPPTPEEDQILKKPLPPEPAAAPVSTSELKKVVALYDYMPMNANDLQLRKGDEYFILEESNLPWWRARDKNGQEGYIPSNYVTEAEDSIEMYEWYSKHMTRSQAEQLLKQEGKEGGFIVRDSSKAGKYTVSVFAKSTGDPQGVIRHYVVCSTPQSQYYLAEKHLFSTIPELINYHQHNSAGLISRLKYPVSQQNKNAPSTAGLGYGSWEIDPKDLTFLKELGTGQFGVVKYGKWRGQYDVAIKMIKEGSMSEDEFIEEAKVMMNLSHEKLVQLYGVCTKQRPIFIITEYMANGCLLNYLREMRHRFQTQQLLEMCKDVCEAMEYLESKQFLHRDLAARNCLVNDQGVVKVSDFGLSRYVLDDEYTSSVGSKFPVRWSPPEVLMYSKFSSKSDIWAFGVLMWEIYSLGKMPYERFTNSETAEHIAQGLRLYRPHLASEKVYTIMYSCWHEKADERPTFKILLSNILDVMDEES

With `NC1=NC=NC2C1C(c1ccc(Oc3ccccc3)cc1)=NN2C1CCN(C(=O)N2CC(C3CN(c4ccc5c(c4)CN([C@H]4CCC(=O)NC4=O)C5=O)C3)C2)CC1` (stereo partly drawn) [Compound 495, (3S)-3-(5-(1′-(4-(4-amino-3-(4-phenoxyphenyl)-3a,7a-dihydro-1H-pyrazolo[3,4-d]pyrimidin-1-yl)piperidine-1-carbonyl)-[3,3′-biazetidin]-1-yl)-1-oxoisoindolin-2-yl)piperidine-2,6-dione], on BTK, the 50% degradation concentration (DC50) (as a rule, the midpoint of the concentration-degradation curve) is below 0.01 µM and the Dmax (commonly the largest share of the target that was removed) is above 90%. Moreover, in the assay with JeKo-1 cells, the IC50 is below 1 µM. Further, the IC50 in the assay on Mino cells is below 1 µM.
`NC1=NC=NC2C1C(c1ccc(Oc3ccccc3)cc1)=NN2C1CCN(C(=O)N2CC(C3CN(c4ccc5c(c4)CN([C@@H]4CCC(=O)NC4=O)C5=O)C3)C2)CC1` (stereo partly drawn) [Compound 496, (3R)-3-(5-(1′-(4-(4-amino-3-(4-phenoxyphenyl)-3a,7a-dihydro-1H-pyrazolo[3,4-d]pyrimidin-1-yl)piperidine-1-carbonyl)-[3,3′-biazetidin]-1-yl)-1-oxoisoindolin-2-yl)piperidine-2,6-dione]: at BTK, the DC50 is below 0.01 µM and the Dmax was above 90%. The IC50 in the assay with JeKo-1 cells was below 1 µM. For the same molecule, in the assay on Mino cells, the IC50 was below 1 µM.
On to `NC1=NC=NC2C1C(c1ccc(Oc3ccccc3)cc1)=NN2[C@@H]1CCCN(C(=O)N2CC(C3CN(c4ccc5c(c4)C(=O)N(C4CCC(=O)NC4=O)C5=O)C3)C2)C1` (stereo partly drawn) [Compound 497, 5-(1′-((3R)-3-(4-amino-3-(4-phenoxyphenyl)-3a,7a-dihydro-1H-pyrazolo[3,4-d]pyrimidin-1-yl)piperidine-1-carbonyl)-[3,3′-biazetidin]-1-yl)-2-(2,6-dioxopiperidin-3-yl)isoindoline-1,3-dione], for which the DC50 on BTK lay within 0.01 to 0.05 µM. Further, the Dmax at BTK is above 90%. The IC50 with JeKo-1 cells and with Mino cells was below 1 µM each time.
With `NC1=NC=NC2C1C(c1ccc(Oc3ccccc3)cc1)=NN2[C@@H]1CCCN(C(=O)N2CC(C3CN(c4ccc5c(c4)CN(C4CCC(=O)NC4=O)C5=O)C3)C2)C1` (stereo partly drawn) [Compound 498, 3-(5-(1′-((3R)-3-(4-amino-3-(4-phenoxyphenyl)-3a,7a-dihydro-1H-pyrazolo[3,4-d]pyrimidin-1-yl)piperidin-1-carbonyl)-[3,3′-biazetidin]-1-yl)-1-oxoisoindolin-2-yl)piperidine-2,6-dione], at BTK, the 50% degradation concentration (DC50) was below 0.01 µM and the Dmax is above 90%. Further, the IC50 in the assay with JeKo-1 cells is below 1 µM. The IC50 with Mino cells is below 1 µM.
As to `NC1=NC=NC2C1C(c1ccc(Oc3ccccc3)cc1)=NN2C1CCN(C2CN(C(=O)N3CC(C4CN(c5ccc6c(c5)C(=O)N(C5CCC(=O)NC5=O)C6=O)C4)C3)C2)CC1` (stereo not shown) [Compound 499, 5-(1′-(3-(4-(4-amino-3-(4-phenoxyphenyl)-3a,7a-dihydro-1H-pyrazolo[3,4-d]pyrimidin-1-yl)piperidin-1-yl)azetidine-1-carbonyl)-[3,3′-biazetidin]-1-yl)-2-(2,6-dioxopiperidin-3-yl)isoindoline-1,3-dione], at BTK, the DC50 lay within 0.01 to 0.05 µM and the greatest degradation seen (Dmax) was above 75%. For the same molecule, in the assay on JeKo-1 cells, the IC50 lay in the range of 1 to 10 µM. For the same molecule, the IC50 in the assay with Mino cells was below 1 µM.
For `NC1=NC=NC2C1C(c1ccc(Oc3ccccc3)cc1)=NN2C1CCN(C2CN(C(=O)N3CC(C4CN(c5ccc6c(c5)CN(C5CCC(=O)NC5=O)C6=O)C4)C3)C2)CC1` (stereo not shown) [Compound 500, 3-(5-(1′-(3-(4-(4-amino-3-(4-phenoxyphenyl)-3a,7a-dihydro-1H-pyrazolo[3,4-d]pyrimidin-1-yl)piperidin-1-yl)azetidine-1-carbonyl)-[3,3′-biazetidin]-1-yl)-1-oxoisoindolin-2-yl)piperidine-2,6-dione], in that order: 0.01 to 0.05 µM, above 90%, 1 to 10 µM and below 1 µM.
With `NC1=NC=NC2C1C(c1ccc(Oc3ccccc3)cc1)=NN2C1CCCN(C2CN(C(=O)N3CC(C4CN(c5ccc6c(c5)C(=O)N(C5CCC(=O)NC5=O)C6=O)C4)C3)C2)C1` (stereo not shown) [Compound 501], at BTK, the 50% degradation concentration (DC50) was in the range of 0.01 to 0.05 µM and the Dmax was above 90%. Further, the IC50 in the assay with JeKo-1 cells is below 1 µM. In addition, the IC50 in the assay with Mino cells was in the range of 1 to 10 µM.
For `NC1=NC=NC2C1C(c1ccc(Oc3ccccc3)cc1)=NN2C1CCCN(C2CN(C(=O)N3CC(C4CN(c5ccc6c(c5)CN(C5CCC(=O)NC5=O)C6=O)C4)C3)C2)C1` (stereo not shown) [Compound 502], in that order: 0.01 to 0.05 µM, above 90%, below 1 µM and below 1 µM.
As for `NC1=NC=NC2C1C(c1ccc(Oc3ccccc3)cc1)=NN2C1CCN(C(=O)N2CCN(C3CN(c4ccc5c(c4)C(=O)N(C4CCC(=O)NC4=O)C5=O)C3)CC2)CC1` (stereo not shown) [Compound 503, 5-(3-(4-(4-(4-amino-3-(4-phenoxyphenyl)-3a,7a-dihydro-1H-pyrazolo[3,4-d]pyrimidin-1-yl)piperidine-1-carbonyl)piperazin-1-yl)azetidin-1-yl)-2-(2,6-dioxopiperidin-3-yl)isoindoline-1,3-dione], on BTK, the DC50 was in the range of 0.01 to 0.05 µM and the greatest degradation seen (Dmax) was above 75%. Further, the IC50 in the assay with JeKo-1 cells was below 1 µM. In the assay with Mino cells, the IC50 was below 1 µM.
On to `NC1=NC=NC2C1C(c1ccc(Oc3ccccc3)cc1)=NN2C1CCN(C(=O)N2CCN(C3CN(c4ccc5c(c4)CN(C4CCC(=O)NC4=O)C5=O)C3)CC2)CC1` (stereo not shown) [Compound 504, 3-(5-(3-(4-(4-(4-amino-3-(4-phenoxyphenyl)-3a,7a-dihydro-1H-pyrazolo[3,4-d]pyrimidin-1-yl)piperidine-1-carbonyl)piperazin-1-yl)azetidin-1-yl)-1-oxoisoindolin-2-yl)piperidine-2,6-dione], for which, at BTK, the half-maximal degradation concentration (DC50) was below 0.01 µM. The greatest degradation seen (Dmax) on BTK is above 90%. For the same molecule, the IC50 in the assay with JeKo-1 cells and with Mino cells was below 1 µM throughout.
Take `NC1=NC=NC2C1C(c1ccc(Oc3ccccc3)cc1)=NN2[C@@H]1CCCN(C(=O)N2CCN(C3CN(c4ccc5c(c4)C(=O)N(C4CCC(=O)NC4=O)C5=O)C3)CC2)C1` (stereo partly drawn) [Compound 505, 5-(3-(4-((3R)-3-(4-amino-3-(4-phenoxyphenyl)-3a,7a-dihydro-1H-pyrazolo[3,4-d]pyrimidin-1-yl)piperidine-1-carbonyl)piperazin-1-yl)azetidin-1-yl)-2-(2,6-dioxopiperidin-3-yl)isoindoline-1,3-dione]: the DC50 at BTK lay within 0.01 to 0.05 µM. For the same molecule, the Dmax on BTK is above 75%. Moreover, the IC50 in the assay on JeKo-1 cells and in the assay with Mino cells was below 1 µM in each case.
Regarding `NC1=NC=NC2C1C(c1ccc(Oc3ccccc3)cc1)=NN2[C@@H]1CCCN(C(=O)N2CCN(C3CN(c4ccc5c(c4)CN(C4CCC(=O)NC4=O)C5=O)C3)CC2)C1` (stereo partly drawn) [Compound 506, 3-(5-(3-(4-((3R)-3-(4-amino-3-(4-phenoxyphenyl)-3a,7a-dihydro-1H-pyrazolo[3,4-d]pyrimidin-1-yl)piperidine-1-carbonyl)piperazin-1-yl)azetidin-1-yl)-1-oxoisoindolin-2-yl)piperidine-2,6-dione], at BTK, the DC50 is 0.01 to 0.05 µM. The greatest degradation seen (Dmax) at BTK was above 90%. Besides, the IC50 with JeKo-1 cells and in the assay on Mino cells was below 1 µM in each case.
For `Nc1ncnc2c1c(-c1ccc(Oc3ccccc3)cc1)nn2C1CCN(C(=O)C2CC(N3CCN(c4ccc5c(c4)C(=O)N(C4CCC(=O)NC4=O)C5=O)CC3)C2)CC1` (stereo not shown) [Compound 507, 5-(4-(3-(4-(4-amino-3-(4-phenoxyphenyl)-1H-pyrazolo[3,4-d]pyrimidin-1-yl)piperidine-1-carbonyl)cyclobutyl)piperazin-1-yl)-2-(2,6-dioxopiperidin-3-yl)isoindoline-1,3-dione], on BTK, the half-maximal degradation concentration (DC50) was below 0.01 µM and the Dmax is above 90%. In the assay on JeKo-1 cells, the IC50 is below 1 µM. In the assay on Mino cells, the IC50 was below 1 µM.
For the molecule `Nc1ncnc2c1c(-c1ccc(Oc3ccccc3)cc1)nn2C1CCN(C(=O)C2CC(N3CCN(c4ccc5c(c4)CN(C4CCC(=O)NC4=O)C5=O)CC3)C2)CC1` (stereo not shown) [Compound 508, 3-(5-(4-(3-(4-(4-amino-3-(4-phenoxyphenyl)-1H-pyrazolo[3,4-d]pyrimidin-1-yl)piperidine-1-carbonyl)cyclobutyl)piperazin-1-yl)-1-oxoisoindolin-2-yl)piperidine-2,6-dione], at BTK, the 50% degradation concentration (DC50) is below 0.01 µM and the Dmax is above 90%. In the assay with JeKo-1 cells, the IC50 was below 1 µM. Also, the IC50 with Mino cells was below 1 µM.
With `Nc1ncnc2c1c(-c1ccc(Oc3ccccc3)cc1)nn2C1CCN(C(=O)C2CN(C3CCN(c4ccc5c(c4)C(=O)N(C4CCC(=O)NC4=O)C5=O)CC3)C2)CC1` (stereo not shown) [Compound 509, 5-(4-(3-(4-(4-amino-3-(4-phenoxyphenyl)-1H-pyrazolo[3,4-d]pyrimidin-1-yl)piperidine-1-carbonyl)azetidin-1-yl)piperidin-1-yl)-2-(2,6-dioxopiperidin-3-yl)isoindoline-1,3-dione], on BTK, the DC50 was below 0.01 µM and the greatest degradation seen (Dmax) was above 90%. Further, in the assay with JeKo-1 cells, the IC50 was below 1 µM. Moreover, the IC50 in the assay with Mino cells was below 1 µM.
Take `Nc1ncnc2c1c(-c1ccc(Oc3ccccc3)cc1)nn2C1CCN(C(=O)C2CN(C3CCN(c4ccc5c(c4)CN(C4CCC(=O)NC4=O)C5=O)CC3)C2)CC1` (stereo not shown) [Compound 510, 3-(5-(4-(3-(4-(4-amino-3-(4-phenoxyphenyl)-1H-pyrazolo[3,4-d]pyrimidin-1-yl)piperidine-1-carbonyl)azetidin-1-yl)piperidin-1-yl)-1-oxoisoindolin-2-yl)piperidine-2,6-dione]: the DC50 on BTK was below 0.01 µM. Moreover, the greatest degradation seen (Dmax) on BTK is above 90%. Also, the IC50 with JeKo-1 cells and in the assay on Mino cells was below 1 µM each time.
